According to publication PMC7949102 (The Journal of Biological Chemistry, 2021):

Tests used:
DdGlud2 = biological target: T1, DdGlud2 (Dictyostelium discoideum, UniProt Q54VI3); test: NADH formation at […] nm; format: biochemical; details: activator; 1 mM GTP, 10 mM Glu, 1 mM NAD+; pH 8.0, 23 °C
T1 construct: gene glud2; full-length, His6-SUMO tag cleaved by ULP, E. coli BL21 Rosetta; elutes at 212 kDa
T1 sequence (Q54VI3 1-1042): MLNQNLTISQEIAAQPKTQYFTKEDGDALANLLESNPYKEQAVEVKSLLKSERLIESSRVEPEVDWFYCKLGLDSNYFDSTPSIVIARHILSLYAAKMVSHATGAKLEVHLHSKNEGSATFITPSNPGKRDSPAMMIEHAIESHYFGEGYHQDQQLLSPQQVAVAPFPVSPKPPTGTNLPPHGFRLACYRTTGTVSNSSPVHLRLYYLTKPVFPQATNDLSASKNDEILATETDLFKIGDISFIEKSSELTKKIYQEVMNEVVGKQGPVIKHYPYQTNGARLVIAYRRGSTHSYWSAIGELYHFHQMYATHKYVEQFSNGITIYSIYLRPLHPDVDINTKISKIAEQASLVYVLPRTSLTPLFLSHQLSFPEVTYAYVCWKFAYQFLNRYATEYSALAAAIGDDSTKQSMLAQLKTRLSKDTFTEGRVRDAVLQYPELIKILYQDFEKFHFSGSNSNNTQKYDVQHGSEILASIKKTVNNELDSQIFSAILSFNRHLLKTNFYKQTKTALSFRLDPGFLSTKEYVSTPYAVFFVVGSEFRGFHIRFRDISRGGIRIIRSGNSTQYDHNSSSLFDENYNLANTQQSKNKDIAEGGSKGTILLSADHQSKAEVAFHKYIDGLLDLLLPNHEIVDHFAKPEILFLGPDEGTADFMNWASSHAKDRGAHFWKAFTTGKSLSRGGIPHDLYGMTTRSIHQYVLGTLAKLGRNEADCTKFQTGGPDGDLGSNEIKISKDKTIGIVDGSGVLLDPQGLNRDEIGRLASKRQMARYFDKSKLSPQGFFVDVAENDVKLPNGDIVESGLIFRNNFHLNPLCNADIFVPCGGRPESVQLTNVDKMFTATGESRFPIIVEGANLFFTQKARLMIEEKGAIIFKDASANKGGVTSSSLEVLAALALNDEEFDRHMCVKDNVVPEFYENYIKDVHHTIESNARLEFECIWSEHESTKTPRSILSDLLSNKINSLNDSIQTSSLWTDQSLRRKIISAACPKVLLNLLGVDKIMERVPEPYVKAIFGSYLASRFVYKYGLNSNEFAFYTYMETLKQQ

Llo2453 = biological target: T2, Llo2453 (Legionella longbeachae, UniProt D3HKA9); format: biochemical
T2 construct: gene LLO_2453
T2 sequence (D3HKA9 1-303): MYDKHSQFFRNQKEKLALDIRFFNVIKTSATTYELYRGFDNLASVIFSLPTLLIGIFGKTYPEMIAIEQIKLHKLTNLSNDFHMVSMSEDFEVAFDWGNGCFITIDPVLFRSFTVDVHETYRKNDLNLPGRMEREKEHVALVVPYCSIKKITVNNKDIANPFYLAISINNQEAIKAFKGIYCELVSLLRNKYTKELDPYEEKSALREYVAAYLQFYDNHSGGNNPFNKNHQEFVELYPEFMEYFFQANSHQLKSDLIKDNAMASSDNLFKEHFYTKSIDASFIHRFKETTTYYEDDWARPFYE

Ltuc1293 = biological target: T3, Ltuc1293 (Legionella tucsonensis, UniProt A0A0W0ZWS2); format: biochemical
T3 construct: gene Ltuc_1293
T3 sequence (A0A0W0ZWS2 1-330): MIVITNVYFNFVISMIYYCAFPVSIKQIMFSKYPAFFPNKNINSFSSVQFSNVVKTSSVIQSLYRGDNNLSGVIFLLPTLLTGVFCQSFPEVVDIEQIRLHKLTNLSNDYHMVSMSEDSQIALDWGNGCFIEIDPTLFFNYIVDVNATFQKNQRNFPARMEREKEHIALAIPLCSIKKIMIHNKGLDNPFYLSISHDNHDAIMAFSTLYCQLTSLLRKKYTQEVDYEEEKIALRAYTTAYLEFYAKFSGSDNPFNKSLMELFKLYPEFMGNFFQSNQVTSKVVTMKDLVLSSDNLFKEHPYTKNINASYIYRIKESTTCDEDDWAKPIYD

Lart1 = Lart1 (Legionella pneumophila, UniProt Q5ZZ30); details: 250 μM etheno-NAD+, 0-8 mM nicotinamide, 0.5 mg/ml DdGlud2; pH 7.5, 100 mM NaCl, room temperature
Sequence of Lart1 (Q5ZZ30 whole entry, looked up): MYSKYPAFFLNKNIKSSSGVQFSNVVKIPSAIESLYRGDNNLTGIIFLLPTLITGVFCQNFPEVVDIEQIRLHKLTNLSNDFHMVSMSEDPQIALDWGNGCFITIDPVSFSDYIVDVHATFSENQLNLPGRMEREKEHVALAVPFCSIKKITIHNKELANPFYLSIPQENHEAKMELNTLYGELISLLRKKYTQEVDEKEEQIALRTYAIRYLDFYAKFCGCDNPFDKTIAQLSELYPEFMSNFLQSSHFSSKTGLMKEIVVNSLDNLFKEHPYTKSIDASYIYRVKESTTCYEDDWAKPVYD

purified protein = substrate: N[C@@H](CCC(=O)O)C(=O)O; test: purified protein; details: 5 mM NAD+, 100 mM Tris-HCl pH 8.0, 0.1 mg/ml BSA, 1 mM DTT, 23 °C, oxidative deamination
SEC = biological target: the molecule itself; test: SEC

Molecule: Nc1nc2c(ncn2[C@@H]2O[C@H](COP(=O)(O)OP(=O)(O)OP(=O)(O)O)[C@@H](O)[C@H]2O)c(=O)[nH]1 [GTP]
- fold stimulation at 1 mM (DdGlud2): 2.5 fold

Molecule: NC(=O)c1ccc[n+]([C@@H]2O[C@H](COP(=O)(O)OP(=O)(O)OC[C@H]3O[C@@H](n4cnc5c4ncn4ccnc54)[C@H](O)[C@@H]3O)[C@@H](O)[C@H]2O)c1 [etheno-NAD+]
- ADP-ribosylation of DdGlud2, anti-ethenoadenosine immunoblot (Llo2453): ADP-ribosylated DdGlud2 in assays using both etheno-NAD+ and biotin-NAD+ as substrates
- ADP-ribosylation of DdGlud2, anti-ethenoadenosine immunoblot (Ltuc1293): ADP-ribosylated DdGlud2 in assays using both etheno-NAD+ and biotin-NAD+ as substrates

Molecule: NC(=O)c1cccnc1 [nicotinamide]
- inhibition (Lart1): Lart1 ADP ribosylation was inhibited by free nicotinamide in ≥ twofold excess of NAD+

B1: DdGlud2 (Dictyostelium discoideum) (protein)
chain: MLNQNLTISQEIAAQPKTQYFTKEDGDALANLLESNPYKEQAVEVKSLLKSERLIESSRVEPEVDWFYCKLGLDSNYFDSTPSIVIARHILSLYAAKMVSHATGAKLEVHLHSKNEGSATFITPSNPGKRDSPAMMIEHAIESHYFGEGYHQDQQLLSPQQVAVAPFPVSPKPPTGTNLPPHGFRLACYRTTGTVSNSSPVHLRLYYLTKPVFPQATNDLSASKNDEILATETDLFKIGDISFIEKSSELTKKIYQEVMNEVVGKQGPVIKHYPYQTNGARLVIAYRRGSTHSYWSAIGELYHFHQMYATHKYVEQFSNGITIYSIYLRPLHPDVDINTKISKIAEQASLVYVLPRTSLTPLFLSHQLSFPEVTYAYVCWKFAYQFLNRYATEYSALAAAIGDDSTKQSMLAQLKTRLSKDTFTEGRVRDAVLQYPELIKILYQDFEKFHFSGSNSNNTQKYDVQHGSEILASIKKTVNNELDSQIFSAILSFNRHLLKTNFYKQTKTALSFRLDPGFLSTKEYVSTPYAVFFVVGSEFRGFHIRFRDISRGGIRIIRSGNSTQYDHNSSSLFDENYNLANTQQSKNKDIAEGGSKGTILLSADHQSKAEVAFHKYIDGLLDLLLPNHEIVDHFAKPEILFLGPDEGTADFMNWASSHAKDRGAHFWKAFTTGKSLSRGGIPHDLYGMTTRSIHQYVLGTLAKLGRNEADCTKFQTGGPDGDLGSNEIKISKDKTIGIVDGSGVLLDPQGLNRDEIGRLASKRQMARYFDKSKLSPQGFFVDVAENDVKLPNGDIVESGLIFRNNFHLNPLCNADIFVPCGGRPESVQLTNVDKMFTATGESRFPIIVEGANLFFTQKARLMIEEKGAIIFKDASANKGGVTSSSLEVLAALALNDEEFDRHMCVKDNVVPEFYENYIKDVHHTIESNARLEFECIWSEHESTKTPRSILSDLLSNKINSLNDSIQTSSLWTDQSLRRKIISAACPKVLLNLLGVDKIMERVPEPYVKAIFGSYLASRFVYKYGLNSNEFAFYTYMETLKQQ
- Km (purified protein): 18.53 (95% CI 10.72, 32.15) mM

B2: Dictyostelium discoideum Glud2 (NAD+-dependent glutamate dehydrogenase of the 115-kDa class) (enzyme, UniProt Q54VI3 1-1042, looked up)
chain: MLNQNLTISQEIAAQPKTQYFTKEDGDALANLLESNPYKEQAVEVKSLLKSERLIESSRVEPEVDWFYCKLGLDSNYFDSTPSIVIARHILSLYAAKMVSHATGAKLEVHLHSKNEGSATFITPSNPGKRDSPAMMIEHAIESHYFGEGYHQDQQLLSPQQVAVAPFPVSPKPPTGTNLPPHGFRLACYRTTGTVSNSSPVHLRLYYLTKPVFPQATNDLSASKNDEILATETDLFKIGDISFIEKSSELTKKIYQEVMNEVVGKQGPVIKHYPYQTNGARLVIAYRRGSTHSYWSAIGELYHFHQMYATHKYVEQFSNGITIYSIYLRPLHPDVDINTKISKIAEQASLVYVLPRTSLTPLFLSHQLSFPEVTYAYVCWKFAYQFLNRYATEYSALAAAIGDDSTKQSMLAQLKTRLSKDTFTEGRVRDAVLQYPELIKILYQDFEKFHFSGSNSNNTQKYDVQHGSEILASIKKTVNNELDSQIFSAILSFNRHLLKTNFYKQTKTALSFRLDPGFLSTKEYVSTPYAVFFVVGSEFRGFHIRFRDISRGGIRIIRSGNSTQYDHNSSSLFDENYNLANTQQSKNKDIAEGGSKGTILLSADHQSKAEVAFHKYIDGLLDLLLPNHEIVDHFAKPEILFLGPDEGTADFMNWASSHAKDRGAHFWKAFTTGKSLSRGGIPHDLYGMTTRSIHQYVLGTLAKLGRNEADCTKFQTGGPDGDLGSNEIKISKDKTIGIVDGSGVLLDPQGLNRDEIGRLASKRQMARYFDKSKLSPQGFFVDVAENDVKLPNGDIVESGLIFRNNFHLNPLCNADIFVPCGGRPESVQLTNVDKMFTATGESRFPIIVEGANLFFTQKARLMIEEKGAIIFKDASANKGGVTSSSLEVLAALALNDEEFDRHMCVKDNVVPEFYENYIKDVHHTIESNARLEFECIWSEHESTKTPRSILSDLLSNKINSLNDSIQTSSLWTDQSLRRKIISAACPKVLLNLLGVDKIMERVPEPYVKAIFGSYLASRFVYKYGLNSNEFAFYTYMETLKQQ
notes: also called DdGlud2; Dictyostelium Glud2; not shown: 6X-His, N-terminal, cleaved; SUMO (yeast SMT3), N-terminal, cleaved
- stoichiometry N (SEC): 2
